In this experiment the target is T1, VLA-4 (Homo sapiens, UniProt P05556+P13612).
T1 construct: host or cells: Jurkat clone E6-1
As to the kind of experiment: Adhesion of Jurkat cells to immobilized VCAM-1 (domains 1-3). It is filed as cell-based. The note with it: adhesion of CFSE-labeled Jurkat cells to recombinant human VCAM-1 (domains 1-3) coated plates; compounds as yielded by solid phase synthesis, purity about 40-90%; read-out: IC50. The method in brief:
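CFSE-labelled Jurkat E6-1 cells in Tris buffer pH 7.4 with 2 mM MnCl2 were added to wells coated with insect-cell-expressed human VCAM-1 domains 1-3 (0.5 μg/ml coating solution); labelled cells were incubated for 30 min at 37 °C with the VLA-4 inhibitor.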

A value given as a limit tells only on which side of the number the result lay.

T1 sequence (P13612 34-1032): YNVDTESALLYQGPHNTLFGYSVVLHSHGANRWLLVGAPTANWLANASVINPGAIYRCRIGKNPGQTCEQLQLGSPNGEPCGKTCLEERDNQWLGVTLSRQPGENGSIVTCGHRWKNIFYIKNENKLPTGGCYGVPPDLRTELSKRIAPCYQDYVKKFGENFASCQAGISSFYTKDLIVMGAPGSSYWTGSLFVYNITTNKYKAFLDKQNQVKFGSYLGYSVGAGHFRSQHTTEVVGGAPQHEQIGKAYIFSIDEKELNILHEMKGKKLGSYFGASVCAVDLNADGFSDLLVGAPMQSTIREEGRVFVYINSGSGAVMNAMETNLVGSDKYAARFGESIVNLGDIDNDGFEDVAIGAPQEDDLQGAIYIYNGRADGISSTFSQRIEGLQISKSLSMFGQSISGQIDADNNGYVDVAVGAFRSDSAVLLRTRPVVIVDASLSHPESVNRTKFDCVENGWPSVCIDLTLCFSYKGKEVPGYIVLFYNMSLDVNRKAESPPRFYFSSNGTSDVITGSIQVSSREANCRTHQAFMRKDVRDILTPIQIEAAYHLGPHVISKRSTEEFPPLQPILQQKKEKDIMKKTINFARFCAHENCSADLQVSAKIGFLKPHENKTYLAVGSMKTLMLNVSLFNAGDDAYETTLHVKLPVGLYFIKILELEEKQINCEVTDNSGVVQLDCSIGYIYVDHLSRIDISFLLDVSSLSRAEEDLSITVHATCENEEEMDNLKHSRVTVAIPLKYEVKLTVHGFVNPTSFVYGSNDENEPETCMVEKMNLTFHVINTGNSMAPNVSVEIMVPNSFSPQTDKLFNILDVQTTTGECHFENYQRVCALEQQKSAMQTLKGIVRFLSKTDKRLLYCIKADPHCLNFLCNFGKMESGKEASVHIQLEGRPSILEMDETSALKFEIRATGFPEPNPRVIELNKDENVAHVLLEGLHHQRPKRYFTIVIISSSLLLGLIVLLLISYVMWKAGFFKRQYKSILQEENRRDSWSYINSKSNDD
T1 sequence (P05556 21-798): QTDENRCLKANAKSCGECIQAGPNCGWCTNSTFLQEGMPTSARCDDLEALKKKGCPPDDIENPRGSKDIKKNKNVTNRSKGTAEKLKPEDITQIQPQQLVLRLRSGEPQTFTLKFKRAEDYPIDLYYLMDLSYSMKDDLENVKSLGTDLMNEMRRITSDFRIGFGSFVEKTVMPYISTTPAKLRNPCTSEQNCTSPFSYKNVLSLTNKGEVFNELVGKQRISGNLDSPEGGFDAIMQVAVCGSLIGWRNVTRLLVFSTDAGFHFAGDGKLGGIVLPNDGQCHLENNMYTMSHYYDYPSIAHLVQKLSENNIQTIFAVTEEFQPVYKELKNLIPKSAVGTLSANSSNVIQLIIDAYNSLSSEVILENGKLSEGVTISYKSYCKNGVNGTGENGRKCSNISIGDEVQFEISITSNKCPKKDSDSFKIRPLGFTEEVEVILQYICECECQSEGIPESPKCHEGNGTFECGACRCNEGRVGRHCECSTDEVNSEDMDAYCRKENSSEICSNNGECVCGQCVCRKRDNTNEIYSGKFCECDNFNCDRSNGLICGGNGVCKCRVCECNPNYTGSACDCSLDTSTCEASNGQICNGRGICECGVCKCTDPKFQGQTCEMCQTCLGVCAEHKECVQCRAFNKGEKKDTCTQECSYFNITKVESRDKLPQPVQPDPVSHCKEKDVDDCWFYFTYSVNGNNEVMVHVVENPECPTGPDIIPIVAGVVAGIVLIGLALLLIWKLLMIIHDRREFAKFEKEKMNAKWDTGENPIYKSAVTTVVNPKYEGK

Consider `Cc1ccc(S(=O)(=O)N2CCCC(C(=O)N[C@@H](Cc3ccc(NC(=O)N4CCN(C(c5ccccc5)c5ccccc5)CC4)cc3)C(=O)O)C2)cc1` (stereo partly shown) [Example 4.35], for which the IC50 (usually the point on the concentration scale where inhibition reaches its midpoint) was 500 to 2000 nM.

`O=C(NCC(c1ccccc1)c1ccccc1)Nc1ccc(C[C@H](NC(=O)C2CCCN(S(=O)(=O)c3cccs3)C2)C(=O)O)cc1` (stereo partly shown) [Example 4.36]: the IC50 fell in the range of 2000 to 10000 nM.

As to `CS(=O)(=O)N1CCCC(C(=O)N[C@@H](Cc2ccc(NC(=O)N3CCN(c4ccccc4)CC3)cc2)C(=O)O)C1` (stereo partly shown) [Example 4.37], the IC50 was in the range of 500 to 2000 nM.

Regarding `COc1ccc(Cl)cc1S(=O)(=O)N1CCCC(C(=O)N[C@@H](Cc2ccc(NC(=O)N3CCN(c4ccccc4)CC3)cc2)C(=O)O)C1` (stereo partly shown) [Example 4.38], the IC50 was 500 to 2000 nM.

Take `O=C(N[C@@H](Cc1ccc(NC(=O)N2CCc3ccccc3C2)cc1)C(=O)O)C1CCCN(S(=O)(=O)c2ccc3ccccc3c2)C1` (stereo partly shown) [Example 4.39]: the IC50 fell in the range of 2000 to 10000 nM.

In the case of `COc1ccc(S(=O)(=O)N2CCCC(C(=O)N[C@@H](Cc3ccc(NC(=O)NC4CCN(Cc5ccccc5)CC4)cc3)C(=O)O)C2)cc1OC` (stereo partly shown) [Example 4.40], the IC50 lay within 2000 to 10000 nM.

For the compound `O=C(N[C@@H](Cc1ccc(NC(=O)N2CCCCC2)cc1)C(=O)O)C1CCCN(S(=O)(=O)c2ccc3ccccc3c2)C1` (stereo partly shown) [Example 4.41], the IC50 was ≤ 500 nM.

With `O=C(N[C@@H](Cc1ccc(NC(=O)N2CCOCC2)cc1)C(=O)O)C1CCCN(S(=O)(=O)c2cccs2)C1` (stereo partly shown) [Example 4.42], the IC50 is ≤ 500 nM.

For `Cc1ccc(S(=O)(=O)N2CCCC(C(=O)N[C@@H](Cc3ccc(NC(=O)N4CCOCC4)cc3)C(=O)O)C2)cc1` (stereo partly shown) [Example 4.43], the IC50 is ≤ 500 nM.

For `O=C(N[C@@H](Cc1ccc(NC(=O)N2CCOCC2)cc1)C(=O)O)C1CCCN(S(=O)(=O)Cc2ccccc2)C1` (stereo partly shown) [Example 4.44], the IC50 was in the range of 500 to 2000 nM.

In the case of `COc1ccc(S(=O)(=O)N2CCCC(C(=O)N[C@@H](Cc3ccc(NC(=O)N4CCN(C(c5ccccc5)c5ccccc5)CC4)cc3)C(=O)O)C2)cc1OC` (stereo partly shown) [Example 4.45], the 50% inhibitory concentration (IC50) is 500 to 2000 nM.

On to `Cc1ccc(S(=O)(=O)N2CCCC(C(=O)N[C@@H](Cc3ccc(NC(=O)N4CCN(c5ccccc5)CC4)cc3)C(=O)O)C2)cc1` (stereo partly shown) [Example 4.46], for which the IC50 is ≤ 500 nM.

`O=C(N[C@@H](Cc1ccc(NC(=O)N2CCN(c3ccccc3)CC2)cc1)C(=O)O)C1CCCN(S(=O)(=O)Cc2ccccc2)C1` (stereo partly shown) [Example 4.47]: the IC50 lay within 500 to 2000 nM.

With `COc1ccc(S(=O)(=O)N2CCCC(C(=O)NC(Cc3ccc(NC(=O)N4CCc5ccccc5C4)cc3)C(=O)O)C2)cc1OC` (stereo not shown) [Example 4.48], the IC50 is ≤ 500 nM.

Consider `O=C(N[C@@H](Cc1ccc(NC(=O)N2CCOCC2)cc1)C(=O)O)C1CCCN(C(=O)c2ccccc2F)C1` (stereo partly shown) [Example 4.49], for which the IC50 is ≤ 500 nM.

With `O=C(N[C@@H](Cc1ccc(NC(=O)N2CCN(c3ccccc3)CC2)cc1)C(=O)O)C1CCCN(C(=O)c2ccccc2F)C1` (stereo partly shown) [Example 4.50], the IC50 was ≤ 500 nM.

As to `CN1CCN(C(=O)Nc2ccc(C[C@H](NC(=O)C3CCCN(C(=O)c4ccccc4F)C3)C(=O)O)cc2)CC1` (stereo partly shown) [Example 4.51], the 50% inhibitory concentration (IC50) was ≤ 500 nM.

`CC(C)NC(=O)N1CCCC(C(=O)N[C@@H](Cc2ccc(NC(=O)N3CCOCC3)cc2)C(=O)O)C1` (stereo partly shown) [Example 4.52]: the IC50 is ≤ 500 nM.

As for `O=C(N[C@@H](Cc1ccc(NC(=O)N2CCc3ccccc3C2)cc1)C(=O)O)C1CCCN(C(=O)C2CCCCC2)C1` (stereo partly shown) [Example 4.53], the IC50 lay in the range of 500 to 2000 nM.

Regarding `COc1ccccc1NC(=O)N1CCCC(C(=O)N[C@@H](Cc2ccc(NC(=O)N3CCCCC3)cc2)C(=O)O)C1` (stereo partly shown) [Example 4.54], the IC50 was in the range of 500 to 2000 nM.

In the case of `COc1ccccc1NC(=O)N1CCCC(C(=O)N[C@H](Cc2ccc(NC(=O)N3CCN(c4ccccc4)CC3)cc2)C(=O)O)C1` (stereo partly shown) [Example 4.55], the half-inhibitory concentration (IC50) lay within 500 to 2000 nM.

Consider `O=C(NCC(c1ccccc1)c1ccccc1)Nc1ccc(C[C@H](NC(=O)C2CCCN(C(=O)c3ccccc3F)C2)C(=O)O)cc1` (stereo partly shown) [Example 4.56], for which the IC50 was in the range of 500 to 2000 nM.

In the case of `CN1CCN(C(=O)Nc2ccc(C[C@H](NC(=O)C3CCCN(C(=O)Nc4ccccc4F)C3)C(=O)O)cc2)CC1` (stereo partly shown) [Example 4.57], the IC50 lay in the range of 500 to 2000 nM.

On to `O=C(N[C@@H](Cc1ccc(NC(=O)N2CCOCC2)cc1)C(=O)O)C1CCCN(C(=O)NC2CCCCC2)C1` (stereo partly shown) [Example 4.58], for which the IC50 is 500 to 2000 nM.

With `O=C(N[C@@H](Cc1ccc(NC(=O)N2CCOCC2)cc1)C(=O)O)C1CCCN(C(=O)Nc2ccc(-c3ccccc3)cc2)C1` (stereo partly shown) [Example 4.59], the half-maximal inhibitory concentration (IC50) lay in the range of 500 to 2000 nM.

With `O=C(N[C@@H](Cc1ccc(NC(=O)N2CCc3ccccc3C2)cc1)C(=O)O)C1CCCN(C(=O)Nc2ccccc2)C1` (stereo partly shown) [Example 4.60], the IC50 fell in the range of 500 to 2000 nM.

Take `O=C(N[C@@H](Cc1ccc(NC(=O)N2CCOCC2)cc1)C(=O)O)C1CCCN(C(=O)Nc2ccccc2F)C1` (stereo partly shown) [Example 4.61]: the IC50 fell in the range of 500 to 2000 nM.

As to `CN1CCN(C(=O)Nc2ccc(C[C@H](NC(=O)C3CCCN(C(=O)NCc4ccccc4)C3)C(=O)O)cc2)CC1` (stereo partly shown) [Example 4.62], the IC50 fell in the range of 500 to 2000 nM.

Consider `COc1ccccc1NC(=O)N1CCCC(C(=O)N[C@@H](Cc2ccc(NC(=O)N3CCOCC3)cc2)C(=O)O)C1` (stereo partly shown) [Example 4.63], for which the IC50 is 500 to 2000 nM.

For `COc1ccccc1-c1ccc(C[C@H](NC(=O)C2CCCN(c3ncnc(NC4CCN(Cc5ccccc5)CC4)c3F)C2)C(=O)O)cc1` (stereo partly shown) [Example 5.2], the 50% inhibitory concentration (IC50) lay within 2000 to 10000 nM.

Take `COc1ccccc1-c1ccc(C[C@H](NC(=O)C2CCCN(c3ncnc(NCCc4c[nH]cn4)c3F)C2)C(=O)O)cc1` (stereo partly shown) [Example 5.3]: the concentration for half-maximal inhibition (IC50) was 2000 to 10000 nM.

For the compound `COc1ccccc1-c1ccc(C[C@H](NC(=O)C2CCCN(c3ncnc(N)c3F)C2)C(=O)O)cc1` (stereo partly shown) [Example 5.4], the IC50 lay in the range of 500 to 2000 nM.

As for `CN(C)CCNc1ncnc(N2CCCC(C(=O)N[C@H](Cc3ccc(NC(=O)N4CCN(C)CC4)cc3)C(=O)O)C2)c1F` (stereo partly shown) [Example 5.5], the IC50 fell in the range of 2000 to 10000 nM.

`O=C(N[C@@H](Cc1ccc(NC(=O)N2CCN(c3ccccc3)CC2)cc1)C(=O)O)C1CCCN(c2ncnc(NCCc3c[nH]cn3)c2F)C1` (stereo partly shown) [Example 5.6]: the concentration for half-maximal inhibition (IC50) lay within 2000 to 10000 nM.

With `COc1ccc(CCNc2ncnc(N3CCCC(C(=O)N[C@@H](Cc4ccc(NC(=O)N5CCN(C)CC5)cc4)C(=O)O)C3)c2F)cc1` (stereo partly shown) [Example 5.7], the IC50 was 500 to 2000 nM.

In the case of `O=C(N[C@@H](Cc1ccc(NC(=O)N2CCOCC2)cc1)C(=O)O)C1CCCN(c2ncnc(NCc3ccccc3)c2F)C1` (stereo partly shown) [Example 5.8], the IC50 was 500 to 2000 nM.

For the compound `O=C(N[C@@H](Cc1ccc(NC(=O)N2CCOCC2)cc1)C(=O)O)C1CCCN(c2ncnc(N3CCCC3)c2F)C1` (stereo partly shown) [Example 5.9], the IC50 lay within 2000 to 10000 nM.

Consider `O=C(N[C@@H](Cc1ccc(NC(=O)N2CCN(c3ccccc3)CC2)cc1)C(=O)O)C1CCCN(c2ncnc(N3CCCC3)c2F)C1` (stereo partly shown) [Example 5.10], for which the half-inhibitory concentration (IC50) fell in the range of 2000 to 10000 nM.

Regarding `CN1CCN(C(=O)Nc2ccc(C[C@H](NC(=O)C3CCCN(c4ncnc(NCc5ccccc5)c4F)C3)C(=O)O)cc2)CC1` (stereo partly shown) [Example 5.11], the half-maximal inhibitory concentration (IC50) lay in the range of 500 to 2000 nM.

Take `O=C(N[C@@H](Cc1ccc(NC(=O)N2CCOCC2)cc1)C(=O)O)C1CCCN(c2ncnc(N3CCN(c4ccccc4)CC3)c2F)C1` (stereo partly shown) [Example 5.12]: the IC50 is 2000 to 10000 nM.

For `CN1CCN(C(=O)Nc2ccc(C[C@H](NC(=O)C3CCCN(c4ncnc(N5CCCC5)c4F)C3)C(=O)O)cc2)CC1` (stereo partly shown) [Example 5.13], the IC50 lay in the range of 2000 to 10000 nM.

As to `CN1CCN(C(=O)Nc2ccc(C[C@H](NC(=O)C3CCCN(c4ncnc(N5CCN(c6ccccc6)CC5)c4F)C3)C(=O)O)cc2)CC1` (stereo partly shown) [Example 5.14], the concentration for half-maximal inhibition (IC50) lay within 2000 to 10000 nM.

With `CN(C)CCCNc1ncnc(N2CCCC(C(=O)N[C@@H](Cc3ccc(NC(=O)N4CCN(c5ccccc5)CC4)cc3)C(=O)O)C2)c1F` (stereo partly shown) [Example 5.15], the IC50 is 2000 to 10000 nM.

Take `COCCNc1ncnc(N2CCCC(C(=O)N[C@@H](Cc3ccc(NC(=O)N4CCc5ccccc5C4)cc3)C(=O)O)C2)c1F` (stereo partly shown) [Example 5.16]: the IC50 was 2000 to 10000 nM.

Consider `O=C(N[C@@H](Cc1ccc(NC(=O)N2CCN(c3ccccc3)CC2)cc1)C(=O)O)C1CCCN(c2ncnc(N3CCSCC3)c2F)C1` (stereo partly shown) [Example 5.17], for which the IC50 was in the range of 500 to 2000 nM.

With `CN1CCN(C(=O)Nc2ccc(C[C@H](NC(=O)C3CCCN(c4ncnc(NCC(c5ccccc5)c5ccccc5)c4F)C3)C(=O)O)cc2)CC1` (stereo partly shown) [Example 5.18], the half-maximal inhibitory concentration (IC50) is 500 to 2000 nM.

In the case of `O=C(N[C@@H](Cc1ccc(NC(=O)N2CCN(c3ccccc3)CC2)cc1)C(=O)O)C1CCCN(c2ncnc(NCC(c3ccccc3)c3ccccc3)c2F)C1` (stereo partly shown) [Example 5.19], the half-maximal inhibitory concentration (IC50) lay within 500 to 2000 nM.

As to `CN1CCN(C(=O)Nc2ccc(C[C@H](NC(=O)C3CCCN(c4ncnc(N5CCCCCC5)c4F)C3)C(=O)O)cc2)CC1` (stereo partly shown) [Example 5.20], the half-maximal inhibitory concentration (IC50) was 500 to 2000 nM.

For the compound `O=C(N[C@@H](Cc1ccc(NC(=O)N2CCOCC2)cc1)C(=O)O)C1CCCN(c2ncnc(N3CCCCCC3)c2F)C1` (stereo partly shown) [Example 5.21], the half-inhibitory concentration (IC50) was in the range of 500 to 2000 nM.

Consider `O=C(N[C@@H](Cc1ccc(NC(=O)N2CCOCC2)cc1)C(=O)O)C1CCCN(c2ncnc(NC3CCN(Cc4ccccc4)CC3)c2F)C1` (stereo partly shown) [Example 5.22], for which the IC50 was 2000 to 10000 nM.

As to `O=C(N[C@@H](Cc1ccc(NC(=O)N2CCN(c3ccccc3)CC2)cc1)C(=O)O)C1CCCN(c2ncnc(NC3CCN(Cc4ccccc4)CC3)c2F)C1` (stereo partly shown) [Example 5.23], the IC50 lay in the range of 500 to 2000 nM.

For the compound `CN1CCN(C(=O)Nc2ccc(C[C@H](NC(=O)C3CCCN(c4ncnc(NC5CCCC5)c4F)C3)C(=O)O)cc2)CC1` (stereo partly shown) [Example 5.24], the concentration for half-maximal inhibition (IC50) is 2000 to 10000 nM.

`CN1CCN(C(=O)Nc2ccc(C[C@H](NC(=O)C3CCCN(c4ncnc(NCCc5ccccc5)c4F)C3)C(=O)O)cc2)CC1` (stereo partly shown) [Example 5.25]: the 50% inhibitory concentration (IC50) is 500 to 2000 nM.

Consider `O=C(N[C@@H](Cc1ccc(NC(=O)N2CCN(c3ccccc3)CC2)cc1)C(=O)O)C1CCCN(c2ncnc(NCCc3ccccc3)c2F)C1` (stereo partly shown) [Example 5.26], for which the IC50 fell in the range of 2000 to 10000 nM.

On to `CN1CCN(C(=O)Nc2ccc(C[C@H](NC(=O)C3CCCN(c4ncnc(N5CCc6ccccc6C5)c4F)C3)C(=O)O)cc2)CC1` (stereo partly shown) [Example 5.27], for which the concentration for half-maximal inhibition (IC50) was 2000 to 10000 nM.

The values are drawn from patent US6794386B2, “β-amino acid compounds as integrin antagonists” (Bayer Aktiengesellschaft, priority 2000, dated 2004).
